Structures can show the parent of a compound that is named as a salt.
Assays:
[1] = target: T1, cloned human 5-HT1A receptors (Homo sapiens, UniProt P08908); assay: 35S-GTPγS binding assay, agonist activity at 5-HT1A receptors; format: biochemical; settings: membranes containing cloned human 5-HT1A receptors; for EC50: read-out: 5-HT1A Function EC50; for Emax / 5-HT1A Function Emax (maximum stimulatory effect): value in parentheses; for Emax: read-out: 5-HT1A Function Emax (maximum stimulatory effect); for 5-HT1A Function Emax (maximum stimulatory effect): in % (unit assumed)
T1 construct: expressed in transfected cells
T1 sequence (P08908 1-422): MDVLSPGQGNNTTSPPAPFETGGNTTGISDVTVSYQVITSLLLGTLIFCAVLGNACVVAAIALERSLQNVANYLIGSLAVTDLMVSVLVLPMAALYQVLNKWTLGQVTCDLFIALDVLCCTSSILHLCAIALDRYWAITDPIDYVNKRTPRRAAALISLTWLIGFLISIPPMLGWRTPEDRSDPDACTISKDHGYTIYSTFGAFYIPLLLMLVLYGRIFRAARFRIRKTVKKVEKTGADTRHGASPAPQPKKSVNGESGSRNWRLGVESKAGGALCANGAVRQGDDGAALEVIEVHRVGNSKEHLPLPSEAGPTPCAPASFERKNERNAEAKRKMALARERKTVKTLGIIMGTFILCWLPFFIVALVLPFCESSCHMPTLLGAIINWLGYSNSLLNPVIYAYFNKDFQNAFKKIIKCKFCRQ
Excerpt: The agonist activity at 5-HT1A receptors was established by using a ^35S-GTPγS binding assay similar to that used by Lazareno and Birdsall (Br. J. Pharmacol., 1993, 109:1120). The binding assay determines the test compound's ability to affect the binding of ^35S-GTPγS to membranes containing cloned human 5-HT1A receptors. Agonists produce an increase in binding whereas antagonists produce no increase but rather reverse the effects of the standard agonist 8-OH-DPAT. The test compound's maximum stimulatory effect is represented as the Emax, while its potency is defined by the EC50.

human 5-HT1A receptors = target: T2, human 5-HT1A receptors (Homo sapiens, UniProt P08908); assay: [3H] 8-OH-DPAT displacement, affinity for the 5-HT1A receptor; format: binding; settings: CHO cells stably transfected with human 5-HT1A receptors
T2 construct: expressed in transfected cells; host or cells: CHO cells, stably transfected
T2 sequence (P08908 1-422): T1 sequence (P08908 1-422)
Excerpt: High affinity for the serotonin 5-HT1A receptor was established by testing the claimed compound's ability to displace [^3H] 8-OH-DPAT (dipropylaminotetralin) from the 5-HT1A serotonin receptor following a modification of the procedure of Hall et al. (J. Neurochem., 1985, 44: 1685) which utilizes CHO cells stably transfected with human 5-HT1A receptors.

5-HT Transporter = target: T3, 5-HT Transporter (Rattus norvegicus, UniProt P31652); assay: 3H-paroxetine displacement, affinity for the serotonin transporter; format: binding; settings: male rat cortical membranes
T3 construct: ability to displace ^3H-paroxetine from male rat cortical membranes; from tissue; host or cells: male rat cortex (membranes)
T3 sequence (P31652 whole entry): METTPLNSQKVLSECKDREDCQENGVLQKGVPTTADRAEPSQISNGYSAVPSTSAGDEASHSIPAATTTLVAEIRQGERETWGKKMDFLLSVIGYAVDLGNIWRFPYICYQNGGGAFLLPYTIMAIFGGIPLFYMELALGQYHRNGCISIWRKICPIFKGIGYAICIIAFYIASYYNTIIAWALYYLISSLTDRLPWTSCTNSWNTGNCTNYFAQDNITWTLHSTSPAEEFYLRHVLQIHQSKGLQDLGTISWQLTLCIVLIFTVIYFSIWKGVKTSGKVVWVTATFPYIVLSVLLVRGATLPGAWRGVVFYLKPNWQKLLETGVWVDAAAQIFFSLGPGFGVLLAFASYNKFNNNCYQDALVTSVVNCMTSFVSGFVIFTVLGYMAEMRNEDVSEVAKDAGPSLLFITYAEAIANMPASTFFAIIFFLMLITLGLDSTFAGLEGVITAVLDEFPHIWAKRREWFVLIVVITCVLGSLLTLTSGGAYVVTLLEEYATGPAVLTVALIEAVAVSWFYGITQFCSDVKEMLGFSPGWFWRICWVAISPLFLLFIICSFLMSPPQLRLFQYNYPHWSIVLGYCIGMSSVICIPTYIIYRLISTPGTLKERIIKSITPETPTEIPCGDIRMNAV

Compound | melting point | EC50 [1] [µM] | Emax [1] [%] | Ki (human 5-HT1A receptors) [µM] | 5-HT1A Function Emax (maximum stimulatory effect) [1] | Ki (5-HT Transporter) [µM]
Fc1ccc2[nH]cc(CCCNC3COc4ccc5ncccc5c4C3)c2c1 (stereo not shown) (as salt: hydrochloride) [Compound 1, N-[3-(5-fluoro-1H-indol-3-yl)propyl]-2,3-dihydro-1H-pyrano[3,2-f]quinolin-2-amine] | > 180 °C | – | – | – | – | –
CCCN(CCCc1c[nH]c2ccc(F)cc12)C1COc2ccc3ncccc3c2C1 (stereo not shown) (as salt: hydrochloride) [Compound 2, N-[3-(5-fluoro-1H-indol-3-yl)propyl]-N-propyl-2,3-dihydro-1H-pyrano[3,2-f]quinolin-2-amine] | > 148 °C | – | – | – | – | –
Fc1ccc2[nH]cc(CCNC3COc4ccc5ncccc5c4C3)c2c1 (stereo not shown) (as salt: hydrochloride) [Compound 5] | 91 °C (dec.) | – | – | – | – | –
CCCN(CCc1c[nH]c2ccc(F)cc12)C1COc2ccc3ncccc3c2C1 (stereo not shown) (as salt: hydrochloride) [Compound 6, N-[2-(5-fluoro-1H-indol-3-yl)ethyl]-N-propyl-2,3-dihydro-1H-pyrano[3,2-f]quinolin-2-amine] | 67 °C | – | – | – | – | –
Fc1ccc2[nH]cc(CCCNC3COc4c(ccc5ncccc45)C3)c2c1 (stereo not shown) (as salt: hydrochloride) [Compound 7, N-[3-(5-fluoro-1H-indol-3-yl)propyl]-3,4-dihydro-2H-pyrano[2,3-f]quinolin-3-amine] | 300 °C (dec.) | – | – | – | – | –
CCCN(CCCc1c[nH]c2ccc(F)cc12)C1COc2c(ccc3ncccc23)C1 (stereo not shown) (as salt: hydrochloride) [Compound 8, N-[3-(5-fluoro-1H-indol-3-yl)propyl]-N-propyl-3,4-dihydro-2H-pyrano[2,3-f]quinolin-3-amine] | 134 °C (dec.) | – | – | – | – | –
Fc1ccc2[nH]cc(CCCCNC3COc4c(ccc5ncccc45)C3)c2c1 (stereo not shown) (as salt: hydrochloride) [Compound 9, N-[4-(5-fluoro-1H-indol-3-yl)butyl]-3,4-dihydro-2H-pyrano[2,3-f]quinolin-3-amine] | 173 °C (dec.) | – | – | – | – | –
CCCN(CCCCc1c[nH]c2ccc(F)cc12)C1COc2c(ccc3ncccc23)C1 (stereo not shown) (as salt: hydrochloride) [Compound 10, N-[4-(5-fluoro-1H-indol-3-yl)butyl]-N-propyl-3,4-dihydro-2H-pyrano[2,3-f]quinolin-3-amine] | 164 °C (dec.) | – | – | – | – | –
Fc1ccc2[nH]cc(CCCNC3COc4ccc5ncccc5c4C3)c2c1 (single isomer, unassigned; (+)) (as salt: hydrochloride) [Compound 1a, (+)-N-[3-(5-fluoro-1H-indol-3-yl)propyl]-2,3-dihydro-1H-pyrano[3,2-f]quinolin-2-amine] | 330 °C (dec.) | – | – | – | – | –
CCCN(CCCc1c[nH]c2ccc(F)cc12)C1COc2ccc3ncccc3c2C1 (single isomer, unassigned; (+)) (as salt: hydrochloride) [Compound 4, (+)-N-[3-(5-fluoro-1H-indol-3-yl)propyl]-N-propyl-2,3-dihydro-1H-pyrano[3,2-f]quinolin-2-amine] | 106 °C (dec.) | – | – | – | – | –
Fc1ccc2[nH]cc(CCCNC3COc4ccc5ncccc5c4C3)c2c1 (single isomer, unassigned; (+)) [Compound 1a, (+)-N-[3-(5-fluoro-1H-indol-3-yl)propyl]-2,3-dihydro-1H-pyrano[3,2-f]quinolin-2-amine] | – | 0.73 | 100 | 0.0239 | – | –
CCCN(CCCc1c[nH]c2ccc(F)cc12)C1COc2ccc3ncccc3c2C1 (single isomer, unassigned; (+)) [Compound 4, (+)-N-[3-(5-fluoro-1H-indol-3-yl)propyl]-N-propyl-2,3-dihydro-1H-pyrano[3,2-f]quinolin-2-amine] | – | 0.3 | – | 0.239 | 99.92 | 0.019
Fc1ccc2[nH]cc(CCCNC3COc4c(ccc5ncccc45)C3)c2c1 (single isomer, unassigned; (+)) [Compound 7a, (+)-N-[3-(5-fluoro-1H-indol-3-yl)propyl]-3,4,-dihydro-2H-pyrano[2,3-f]quinolin-3-amine] | – | 0.32 | – | – | 74.80 | 0.00283
CCCN(CCCc1c[nH]c2ccc(F)cc12)C1COc2ccc3ncccc3c2C1 (single isomer, unassigned; (-)) (as salt: hydrochloride) [Compound 3, (−)-N-[3-(5-fluoro-1H-indol-3-yl)propyl]-N-propyl-2,3-dihydro-1H-pyran[3,2-f]quinolin-2-amine] | 83.5 °C (dec.) | – | – | – | – | –
Fc1ccc2[nH]cc(CCCNC3COc4c(ccc5ncccc45)C3)c2c1 (single isomer, unassigned; (-)) (as salt: hydrochloride) [Compound 7b, (−)-N-[3-(5-fluoro-1H-indol-3-yl)propyl]-3,4-dihydro-2H-pyrano[2,3-f]quinolin-3-amine] | 250 °C (dec.) | – | – | – | – | –
Fc1ccc2[nH]cc(CCCNC3COc4ccc5ncccc5c4C3)c2c1 (single isomer, unassigned; (-)) [Compound 1b, (−)-N-[3-(5-fluoro-1H-indol-3-yl)propyl]-2,3-dihydro-1H-pyrano[3,2-f]quinolin-2-amine] | – | 0.12 | – | 0.314 | 85.87 | –
CCCN(CCCc1c[nH]c2ccc(F)cc12)C1COc2ccc3ncccc3c2C1 (single isomer, unassigned; (-)) [Compound 3, (−)-N-[3-(5-fluoro-1H-indol-3-yl)propyl]-N-propyl-2,3-dihydro-1H-pyran[3,2-f]quinolin-2-amine] | – | 0.63 | – | 0.21 | 54.72 | 0.008
Fc1ccc2[nH]cc(CCCNC3COc4c(ccc5ncccc45)C3)c2c1 (single isomer, unassigned; (-)) [Compound 7b, (−)-N-[3-(5-fluoro-1H-indol-3-yl)propyl]-3,4-dihydro-2H-pyrano[2,3-f]quinolin-3-amine] | – | 0.17 | – | 0.0163 | 100 | 0.0042
Fc1ccc2[nH]cc(CCCNC3COc4ccc5ncccc5c4C3)c2c1 (stereo not shown) [Compound 1, N-[3-(5-fluoro-1H-indol-3-yl)propyl]-2,3-dihydro-1H-pyrano[3,2-f]quinolin-2-amine] | – | 0.18 | 75.8 | 0.0626 | – | –
CCCN(CCCc1c[nH]c2ccc(F)cc12)C1COc2ccc3ncccc3c2C1 (stereo not shown) [Compound 2, N-[3-(5-fluoro-1H-indol-3-yl)propyl]-N-propyl-2,3-dihydro-1H-pyrano[3,2-f]quinolin-2-amine] | – | 2.22 | 100 | 0.091 | – | 0.0065
Fc1ccc2[nH]cc(CCNC3COc4ccc5ncccc5c4C3)c2c1 (stereo not shown) [Compound 5] | – | 5 | 30 | – | – | 0.024
CCCN(CCc1c[nH]c2ccc(F)cc12)C1COc2ccc3ncccc3c2C1 (stereo not shown) [Compound 6, N-[2-(5-fluoro-1H-indol-3-yl)ethyl]-N-propyl-2,3-dihydro-1H-pyrano[3,2-f]quinolin-2-amine] | – | 0.19 | 41.3 | 0.478 | – | 0.04
Fc1ccc2[nH]cc(CCCNC3COc4c(ccc5ncccc45)C3)c2c1 (stereo not shown) [Compound 7, N-[3-(5-fluoro-1H-indol-3-yl)propyl]-3,4-dihydro-2H-pyrano[2,3-f]quinolin-3-amine] | – | 1.2 | 100 | 0.0136 | – | 0.00283
CCCN(CCCc1c[nH]c2ccc(F)cc12)C1COc2c(ccc3ncccc23)C1 (stereo not shown) [Compound 8, N-[3-(5-fluoro-1H-indol-3-yl)propyl]-N-propyl-3,4-dihydro-2H-pyrano[2,3-f]quinolin-3-amine] | – | 1.71 | 68.3 | – | – | 0.015
Fc1ccc2[nH]cc(CCCCNC3COc4c(ccc5ncccc45)C3)c2c1 (stereo not shown) [Compound 9, N-[4-(5-fluoro-1H-indol-3-yl)butyl]-3,4-dihydro-2H-pyrano[2,3-f]quinolin-3-amine] | – | 5.94 | 100 | – | – | 0.00118
CCCN(CCCCc1c[nH]c2ccc(F)cc12)C1COc2c(ccc3ncccc23)C1 (stereo not shown) [Compound 10, N-[4-(5-fluoro-1H-indol-3-yl)butyl]-N-propyl-3,4-dihydro-2H-pyrano[2,3-f]quinolin-3-amine] | – | – | – | – | – | 0.012
